Experiments:
[1] = target: Signal transducer and activator of transcription 3 (Homo sapiens, UniProt P40763); experiment: Inhibition of STAT3 in human HEK293T cells assessed as inhibition of IL-6 stimulated STAT3 phosphorylation by dual-luciferase reporter assay; type: cell-based
Capan-2 = experiment: Anti-proliferative activity against human Capan-2 cells assessed as cell growth inhibition incubated for 72 hrs by MTS assay; type: functional, cell-based; settings: Capan-2, 72 h
[2] = Inhibition of ATP production in human BXPC-3 cells incubated for 20 to 24 hrs by ATP assay kit method; type: functional, cell-based
BXPC-3 = experiment: Anti-proliferative activity against human BXPC-3 cells assessed as cell growth inhibition incubated for 72 hrs by MTS assay; type: functional, cell-based; settings: BXPC-3, 72 h

Sequence of Signal transducer and activator of transcription 3 (P40763 whole entry): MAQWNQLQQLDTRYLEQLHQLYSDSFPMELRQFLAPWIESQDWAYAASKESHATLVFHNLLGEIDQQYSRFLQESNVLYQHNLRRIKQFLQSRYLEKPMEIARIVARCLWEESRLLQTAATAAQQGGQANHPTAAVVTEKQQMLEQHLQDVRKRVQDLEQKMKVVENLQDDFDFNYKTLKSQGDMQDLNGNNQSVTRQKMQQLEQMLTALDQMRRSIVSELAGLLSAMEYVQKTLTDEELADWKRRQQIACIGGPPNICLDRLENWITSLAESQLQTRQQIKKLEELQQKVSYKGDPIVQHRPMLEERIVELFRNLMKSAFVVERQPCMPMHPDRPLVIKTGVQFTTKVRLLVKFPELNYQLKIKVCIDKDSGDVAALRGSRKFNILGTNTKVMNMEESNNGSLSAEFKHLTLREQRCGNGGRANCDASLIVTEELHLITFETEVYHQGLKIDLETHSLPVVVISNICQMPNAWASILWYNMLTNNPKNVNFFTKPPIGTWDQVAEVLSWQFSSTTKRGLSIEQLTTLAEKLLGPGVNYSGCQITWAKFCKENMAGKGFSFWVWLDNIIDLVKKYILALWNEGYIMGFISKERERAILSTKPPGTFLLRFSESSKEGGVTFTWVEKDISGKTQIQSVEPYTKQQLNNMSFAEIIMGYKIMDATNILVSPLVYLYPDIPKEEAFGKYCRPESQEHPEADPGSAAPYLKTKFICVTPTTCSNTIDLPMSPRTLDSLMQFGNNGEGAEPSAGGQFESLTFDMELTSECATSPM

`COC(=O)Cn1c(C(=O)N2CCN(Cc3ccc(OCC(F)(F)F)cc3)CC2)cc2ccc(Oc3cnc(-c4nc(-c5ccc(C(F)(F)F)cc5)no4)cn3)cc21` gave an IC50 [1] of over 1000 nM.

Compound `Cn1c(C(=O)N2CCN(CCc3ccccc3)CC2)cc2ccc(Oc3cnc(-c4nc(-c5ccc(C(F)(F)F)cc5)no4)cn3)cc21` has an IC50 [1] of 595 nM.

`Cn1c(C(=O)N2CCN(Cc3ccc(OCC(F)(F)F)cc3)CC2)cc2ccc(Oc3cnc(-c4nc(-c5ccc(Br)cc5)no4)cn3)cc21` gave an IC50 (Capan-2) of 9.3 nM, an IC50 [2] of 14.3 nM and an IC50 (BXPC-3) of 2.7 nM. The IC50 [1] was 28.1 nM.

`COc1ccc(CN2CCN(C(=O)c3cc4ccc(Oc5cnc(-c6nc(-c7ccc(C(F)(F)F)cc7)no6)cn5)cc4n3C)CC2)cc1` showed an IC50 [1] of 63.6 nM.

In the case of `Cn1c(C(=O)N2CCN(Cc3ccc(Cl)cc3)CC2)cc2ccc(Oc3cnc(-c4nc(-c5ccc(C(F)(F)F)cc5)no4)cn3)cc21`, the IC50 [1] is reported as 649 nM.

`Cn1c(C(=O)N2CCN(Cc3ccc(C(F)(F)F)cc3)CC2)cc2ccc(Oc3cnc(-c4nc(-c5ccc(C(F)(F)F)cc5)no4)cn3)cc21` gave an IC50 [2] of 102 nM and an IC50 [1] of 72.4 nM.

`CCOC(=O)Cn1c(C(=O)N2CCN(Cc3ccc(OCC(F)(F)F)cc3)CC2)cc2ccc(Oc3cnc(-c4nc(-c5ccc(C(F)(F)F)cc5)no4)cn3)cc21` gave an IC50 [1] of over 1000 nM.

`Cn1c(C(=O)N2CCN(Cc3ccc(OCC(F)(F)F)cc3)CC2)cc2ccc(Oc3cnc(-c4nc(-c5ccc(C(F)(F)F)cc5)no4)cn3)cc21` gave an IC50 (Capan-2) of 8.6 nM, an IC50 [2] of 32.5 nM and an IC50 (BXPC-3) of 3.3 nM. For the same compound, the IC50 [1] was 22.3 nM.

For `Cn1c(C(=O)N2CCN(Cc3ccc(Br)cc3)CC2)cc2ccc(Oc3cnc(-c4nc(-c5ccc(C(F)(F)F)cc5)no4)cn3)cc21`, the IC50 [1] was 836 nM.

For `COCCn1c(C(=O)N2CCN(Cc3ccc(OCC(F)(F)F)cc3)CC2)cc2ccc(Oc3cnc(-c4nc(-c5ccc(C(F)(F)F)cc5)no4)cn3)cc21`, the IC50 [2] was 93.2 nM and the IC50 [1] was 39.9 nM.

For `CCCN1CCN(C(=O)c2cc3ccc(Oc4cnc(-c5nc(-c6ccc(C(F)(F)F)cc6)no5)cn4)cc3n2C)CC1`, the IC50 [1] was 800 nM.

Work on `Cn1c(C(=O)N2CCN(Cc3ccccc3OCC(F)(F)F)CC2)cc2ccc(Oc3cnc(-c4nc(-c5ccc(C(F)(F)F)cc5)no4)cn3)cc21` yielded an IC50 [1] of over 1000 nM.

For `CCCn1c(C(=O)N2CCN(Cc3ccc(OCC(F)(F)F)cc3)CC2)cc2ccc(Oc3cnc(-c4nc(-c5ccc(C(F)(F)F)cc5)no4)cn3)cc21`, the IC50 [1] was 613 nM.

For `CCN1CCN(C(=O)c2cc3ccc(Oc4cnc(-c5nc(-c6ccc(C(F)(F)F)cc6)no5)cn4)cc3n2C)CC1`, the IC50 (Capan-2) was 1 nM, the IC50 [2] was 1.6 nM and the IC50 (BXPC-3) was 1.9 nM. For the same compound, the IC50 [1] was 1110 nM.

`COc1ccc(CN2CCN(C(=O)c3cc4ccc(Oc5cnc(-c6nc(-c7ccc(C(F)(F)F)cc7)no6)cn5)cc4n3C)CC2)cc1F` gave an IC50 [1] of 134 nM.

With `COc1cccc(-c2noc(-c3cnc(Oc4ccc5cc(C(=O)N6CCN(Cc7ccc(OCC(F)(F)F)cc7)CC6)n(C)c5c4)cn3)n2)c1` the IC50 (Capan-2) was 6.5 nM, the IC50 [2] was 12.6 nM and the IC50 (BXPC-3) was 1.5 nM. For the same compound, the IC50 [1] was 19.8 nM.

Compound `CCn1c(C(=O)N2CCN(Cc3ccc(OCC(F)(F)F)cc3)CC2)cc2ccc(Oc3cnc(-c4nc(-c5ccc(C(F)(F)F)cc5)no4)cn3)cc21` has an IC50 [1] of 167 nM.

Compound `Cn1c(C(=O)N2CCN(Cc3ccc(F)cc3)CC2)cc2ccc(Oc3cnc(-c4nc(-c5ccc(C(F)(F)F)cc5)no4)cn3)cc21` has an IC50 [1] of 427 nM.

`COC(=O)CN1CCN(C(=O)c2cc3ccc(Oc4cnc(-c5nc(-c6ccc(C(F)(F)F)cc6)no5)cn4)cc3n2C)CC1` showed an IC50 [1] of over 1000 nM.

`O=C(c1cc2ccc(Oc3cnc(-c4nc(-c5ccc(C(F)(F)F)cc5)no4)cn3)cc2n1Cc1ccccc1)N1CCN(Cc2ccc(OCC(F)(F)F)cc2)CC1` showed an IC50 [1] of over 1000 nM.

For `Cn1c(C(=O)N2CCN(Cc3ccc(OCC(F)(F)F)cc3)CC2)cc2ccc(Oc3cnc(-c4nc(-c5ccc(Cl)cc5)no4)cn3)cc21`, the IC50 (Capan-2) was 12.6 nM, the IC50 [2] was 25.8 nM and the IC50 (BXPC-3) was 4.8 nM. The IC50 [1] was 35.7 nM.

`Cn1c(C(=O)N2CCN(Cc3cccc(OCC(F)(F)F)c3)CC2)cc2ccc(Oc3cnc(-c4nc(-c5ccc(C(F)(F)F)cc5)no4)cn3)cc21` gave an IC50 [1] of over 1000 nM.

Compound `Cn1c(C(=O)N2CCN(Cc3ccc(OC(F)(F)F)cc3)CC2)cc2ccc(Oc3cnc(-c4nc(-c5ccc(C(F)(F)F)cc5)no4)cn3)cc21` has an IC50 [1] of 76.1 nM.

Compound `Cc1cccc(CN2CCN(C(=O)c3cc4ccc(Oc5cnc(-c6nc(-c7ccc(C(F)(F)F)cc7)no6)cn5)cc4n3C)CC2)c1` has an IC50 [1] of over 1000 nM.

Compound `Cn1c(C(=O)N2CCN(C(=O)CCl)CC2)cc2ccc(Oc3cnc(-c4nc(-c5ccc(C(F)(F)F)cc5)no4)cn3)cc21` has an IC50 [1] of over 1000 nM.

With `Cn1c(C(=O)N2CCN(Cc3ccc(OCC(F)(F)F)cc3)CC2)cc2ccc(Oc3cnc(-c4nc(-c5cccc(F)c5)no4)cn3)cc21` the IC50 (Capan-2) was 5 nM, the IC50 [2] was 19.9 nM and the IC50 (BXPC-3) was 1.9 nM. It also gave an IC50 [1] of 38.3 nM.

`Cn1c(C(=O)N2CCN(C(=O)c3ccc(OCC(F)(F)F)cc3)CC2)cc2ccc(Oc3cnc(-c4nc(-c5ccc(C(F)(F)F)cc5)no4)cn3)cc21` showed an IC50 [1] of over 1000 nM.

In the case of `Cn1c(C(=O)N2CCN(Cc3cccc(C(F)(F)F)c3)CC2)cc2ccc(Oc3cnc(-c4nc(-c5ccc(C(F)(F)F)cc5)no4)cn3)cc21`, the IC50 [1] is reported as over 1000 nM.

In the case of `CN1CCN(C(=O)c2cc3ccc(Oc4cnc(-c5nc(-c6ccc(C(F)(F)F)cc6)no5)cn4)cc3n2C)CC1`, the IC50 [1] is reported as over 1000 nM.

Work on `Cn1c(C(=O)N2CCN(Cc3ccc(OCC(F)(F)F)cc3)CC2)cc2ccc(Oc3cnc(-c4nc(-c5ccccc5F)no4)cn3)cc21` yielded an IC50 (Capan-2) of 7.7 nM, an IC50 [2] of 16.5 nM and an IC50 (BXPC-3) of 1.7 nM. For the same compound, the IC50 [1] was 13.1 nM.

Compound `Cc1ccc(CN2CCN(C(=O)c3cc4ccc(Oc5cnc(-c6nc(-c7ccc(C(F)(F)F)cc7)no6)cn5)cc4n3C)CC2)cc1` has an IC50 [1] of 492 nM.

Work on `Cn1c(C(=O)N2CCN(C(=O)c3ccc(C(F)(F)F)cc3)CC2)cc2ccc(Oc3cnc(-c4nc(-c5ccc(C(F)(F)F)cc5)no4)cn3)cc21` yielded an IC50 [1] of over 1000 nM.

In the case of `CC(C)C(=O)n1c(C(=O)N2CCN(Cc3ccc(OCC(F)(F)F)cc3)CC2)cc2ccc(Oc3cnc(-c4nc(-c5ccc(C(F)(F)F)cc5)no4)cn3)cc21`, the IC50 [1] is reported as 337 nM.

`C=CCn1c(C(=O)N2CCN(Cc3ccc(OCC(F)(F)F)cc3)CC2)cc2ccc(Oc3cnc(-c4nc(-c5ccc(C(F)(F)F)cc5)no4)cn3)cc21` gave an IC50 [1] of over 1000 nM.

With `COc1ccccc1-c1noc(-c2cnc(Oc3ccc4cc(C(=O)N5CCN(Cc6ccc(OCC(F)(F)F)cc6)CC5)n(C)c4c3)cn2)n1` the IC50 (Capan-2) was 8.6 nM, the IC50 [2] was 56.5 nM and the IC50 (BXPC-3) was 1.3 nM. The IC50 [1] was 45.5 nM.

In the case of `Cn1c(C(=O)N2CCN(Cc3ccc(OCC(F)(F)F)cc3)CC2)cc2ccc(Oc3cnc(-c4nc(-c5ccc(OC(F)(F)F)cc5)no4)cn3)cc21`, the IC50 (Capan-2) is reported as 6.4 nM, the IC50 [2] is reported as 10.5 nM and the IC50 (BXPC-3) is reported as 11.4 nM. For the same compound, the IC50 [1] was 39.2 nM.

For `Cn1c(C(=O)N2CCN(Cc3ccc(OCC(F)(F)F)c(F)c3)CC2)cc2ccc(Oc3cnc(-c4nc(-c5ccc(C(F)(F)F)cc5)no4)cn3)cc21`, the IC50 [2] was 117 nM and the IC50 [1] was 101 nM.

In the case of `Cn1c(C(=O)N2CCN(Cc3ccc(OCC(F)(F)F)cc3)CC2)cc2ccc(Oc3cnc(-c4nc(-c5ccccc5)no4)cn3)cc21`, the IC50 [1] is reported as 217 nM.

`O=C(c1cc2ccc(Oc3cnc(-c4nc(-c5ccc(C(F)(F)F)cc5)no4)cn3)cc2[nH]1)N1CCN(Cc2ccc(OCC(F)(F)F)cc2)CC1` gave an IC50 [2] of 25 nM and an IC50 [1] of 30.5 nM.

Source: ChEMBL document CHEMBL5096221, “Discovery of a Highly Potent and Orally Bioavailable STAT3 Dual Phosphorylation Inhibitor for Pancreatic Cancer Treatment” (J Med Chem, 2022)
